Assays:
barnyardgrass [1] = experiment: Test C preemergence; assay type: in vivo, Echinochloa crusgalli; conditions: 0 to 100 scale (0 no effect, 100 complete control)
Summary of the method: (§1)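 Visual injury score, 0–100 (100 = complete control), taken 10 days after treatment relative to untreated controls. Pre: directed spray onto soil over sown seeds. Post: foliar spray at one- to two-leaf stage, 2–10 cm. Solvent/surfactant formulation; loam–sand soil; greenhouse.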

blackgrass [2] = experiment: Test C preemergence; assay type: in vivo, Alopecurus myosuroides; conditions: 0 to 100 scale (0 no effect, 100 complete control)
Summary of the method: as §1

corn [3] = experiment: Test C preemergence; assay type: in vivo, Zea mays; conditions: 0 to 100 scale (0 no effect, 100 complete control)
Summary of the method: as §1

green foxtail [4] = experiment: Test C preemergence; assay type: in vivo, Setaria viridis; conditions: 0 to 100 scale (0 no effect, 100 complete control)
Summary of the method: as §1

kochia [5] = experiment: Test C preemergence; assay type: in vivo, Bassia scoparia; conditions: 0 to 100 scale (0 no effect, 100 complete control)
Summary of the method: as §1

oat, wild [6] = experiment: Test C preemergence; assay type: in vivo, Avena fatua; conditions: 0 to 100 scale (0 no effect, 100 complete control)
Summary of the method: as §1

pigweed, palmer [7] = experiment: Test C preemergence; assay type: in vivo, Amaranthus palmeri; conditions: 0 to 100 scale (0 no effect, 100 complete control)
Summary of the method: as §1

ragweed [8] = experiment: Test C preemergence; assay type: in vivo, Ambrosia artemisiifolia; conditions: 0 to 100 scale (0 no effect, 100 complete control)
Summary of the method: as §1

ryegrass, Italian [9] = experiment: Test C preemergence; assay type: in vivo, Lolium multiflorum; conditions: 0 to 100 scale (0 no effect, 100 complete control)
Summary of the method: as §1

soybean [10] = experiment: Test C preemergence; assay type: in vivo, Glycine max; conditions: 0 to 100 scale (0 no effect, 100 complete control)
Summary of the method: as §1

wheat [11] = experiment: Test C preemergence; assay type: in vivo, Triticum aestivum; conditions: 0 to 100 scale (0 no effect, 100 complete control)
Summary of the method: as §1

barnyardgrass [12] = experiment: Test C postemergence; assay type: in vivo, Echinochloa crusgalli; conditions: 10 days
Summary of the method: as §1

blackgrass [13] = experiment: Test C postemergence; assay type: in vivo, Alopecurus myosuroides; conditions: 10 days
Summary of the method: as §1

corn [14] = experiment: Test C postemergence; assay type: in vivo, Zea mays; conditions: 10 days
Summary of the method: as §1

green foxtail [15] = experiment: Test C postemergence; assay type: in vivo, Setaria viridis; conditions: 10 days
Summary of the method: as §1

kochia [16] = experiment: Test C postemergence; assay type: in vivo, Bassia scoparia; conditions: 10 days
Summary of the method: as §1

oat, wild [17] = experiment: Test C postemergence; assay type: in vivo, Avena fatua; conditions: 10 days
Summary of the method: as §1

pigweed, palmer [18] = experiment: Test C postemergence; assay type: in vivo, Amaranthus palmeri; conditions: 10 days
Summary of the method: as §1

ragweed [19] = experiment: Test C postemergence; assay type: in vivo, Ambrosia artemisiifolia; conditions: 10 days
Summary of the method: as §1

ryegrass, Italian [20] = experiment: Test C postemergence; assay type: in vivo, Lolium multiflorum; conditions: 10 days
Summary of the method: as §1

soybean [21] = experiment: Test C postemergence; assay type: in vivo, Glycine max; conditions: 10 days
Summary of the method: as §1

wheat [22] = experiment: Test C postemergence; assay type: in vivo, Triticum aestivum; conditions: 10 days
Summary of the method: as §1

galium = experiment: Test C postemergence; assay type: in vivo, Galium aparine; conditions: 10 days
Summary of the method: as §1

horseweed = experiment: Test C postemergence; assay type: in vivo, Erigeron canadensis; conditions: 10 days
Summary of the method: as §1

barnyardgrass [23] = experiment: Test D flooded paddy test; assay type: in vivo, Echinochloa crus-galli; conditions: 250 g ai/ha, applied to paddy water, visual rating after 13 to 14 days, scale 0 to 100 (0 no effect, 100 complete control)
Summary of the method: (§2)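 Plants grown to the 2-leaf stage; pots flooded to 3 cm above soil at treatment and held at that depth throughout. Test compounds applied directly to the paddy water. After 13 to 14 days in a greenhouse, response was rated visually versus controls on a 0 (no effect) to 100 (complete control) scale.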

ducksalad = experiment: Test D flooded paddy test; assay type: in vivo, Heteranthera limosa; conditions: 250 g ai/ha, applied to paddy water, visual rating after 13 to 14 days, scale 0 to 100 (0 no effect, 100 complete control)
Summary of the method: as §2

rice = experiment: Test D flooded paddy test; assay type: in vivo, Oryza sativa; conditions: 250 g ai/ha, applied to paddy water, visual rating after 13 to 14 days, scale 0 to 100 (0 no effect, 100 complete control)
Summary of the method: as §2

sedge, umbrella = experiment: Test D flooded paddy test; assay type: in vivo, Cyperus difformis; conditions: 250 g ai/ha, applied to paddy water, visual rating after 13 to 14 days, scale 0 to 100 (0 no effect, 100 complete control)
Summary of the method: as §2

[24] = Preemergence, 500 g ai/ha, visual rating after 10 days
[25] = Test C, preemergence, 125 g ai/ha
[26] = 125 g ai/ha, postemergence, 0 to 100 scale, 0 no effect, 100 complete control
[27] = Postemergence, 500 g ai/ha, visual 0 to 100 scale (0 no effect, 100 complete control)

## CC(C)c1ncn(-c2cc(OC(F)F)c(OC(F)F)c(C(=O)N3C[C@H](C)Oc4c(Cl)cccc43)c2)n1 [Compound 150]
Barnyardgrass [1]; 125 g ai/ha, preemergence
  Barnyardgrass plant response rating: 0
Barnyardgrass [1]; [24]
  Plant response rating, Barnyardgrass: 0
Blackgrass [2]; [24]
  Plant response rating, Blackgrass: 0
Blackgrass [2]; [25]
  Blackgrass plant response rating: 0
Corn [3]; [24]
  Plant response rating, Corn: 0
Corn [3]; [25]
  Corn plant response rating: 0
Green foxtail [4]; [24]
  Plant response rating, Foxtail, Green: 0
Green foxtail [4]; [25]
  Foxtail, Green plant response rating: 0
Kochia [5]; [24]
  Plant response rating, Kochia: 0
Kochia [5]; [25]
  Kochia plant response rating: 0
oat, wild [6]; [24]
  Plant response rating, Oat, Wild: 0
oat, wild [6]; [25]
  Oat, Wild plant response rating: 0
pigweed, palmer [7]; [24]
  Plant response rating, Pigweed, Palmer: 0
pigweed, palmer [7]; [25]
  Pigweed, Palmer plant response rating: 0
Ragweed [8]; [24]
  Plant response rating, Ragweed: 20
Ragweed [8]; [25]
  Ragweed plant response rating: 0
ryegrass, Italian [9]; [24]
  Plant response rating, Ryegrass, Italian: 0
ryegrass, Italian [9]; [25]
  Ryegrass, Italian plant response rating: 0
Soybean [10]; [24]
  Plant response rating, Soybean: 0
Soybean [10]; [25]
  Soybean plant response rating: 0
Wheat [11]; [24]
  Plant response rating, Wheat: 0
Wheat [11]; [25]
  Wheat plant response rating: 0
Barnyardgrass [12]; [26]
  Plant response rating, Barnyardgrass: 10
Barnyardgrass [12]; [27]
  Plant response rating, Barnyardgrass: 10
Blackgrass [13]; [26]
  Plant response rating, Blackgrass: 0
Blackgrass [13]; [27]
  Plant response rating, Blackgrass: 0
Corn [14]; [26]
  Plant response rating, Corn: 0
Corn [14]; [27]
  Plant response rating, Corn: 0
Green foxtail [15]; [26]
  Plant response rating, Foxtail, Green: 0
Green foxtail [15]; [27]
  Plant response rating, Foxtail, Green: 0
Kochia [16]; [26]
  Plant response rating, Kochia: 0
Kochia [16]; [27]
  Plant response rating, Kochia: 20
oat, wild [17]; [26]
  Plant response rating, Oat, Wild: 0
oat, wild [17]; [27]
  Plant response rating, Oat, Wild: 0
pigweed, palmer [18]; [26]
  Plant response rating, Pigweed, Palmer: 0
pigweed, palmer [18]; [27]
  Plant response rating, Pigweed, Palmer: 30
Ragweed [19]; [26]
  Plant response rating, Ragweed: 0
Ragweed [19]; [27]
  Plant response rating, Ragweed: 0
ryegrass, Italian [20]; [26]
  Plant response rating, Ryegrass, Italian: 0
ryegrass, Italian [20]; [27]
  Plant response rating, Ryegrass, Italian: 0
Soybean [21]; [26]
  Plant response rating, Soybean: 20
Soybean [21]; [27]
  Plant response rating, Soybean: 50
Wheat [22]; [26]
  Plant response rating, Wheat: 0
Wheat [22]; [27]
  Plant response rating, Wheat: 0
galium; [26]
  Plant response rating, Galium: 0
galium; [27]
  Plant response rating, Galium: 0
horseweed; [26]
  Plant response rating, Horseweed: 0
horseweed; [27]
  Plant response rating, Horseweed: 0
Barnyardgrass [23]
  Plant response rating, Barnyardgrass (Flood): 0
ducksalad
  Plant response rating, Ducksalad (Flood): 0
rice
  Plant response rating, Rice (Flood): 0
sedge, umbrella
  Plant response rating, Sedge, Umbrella (Flood): 0
